Several values for one entry are separate records, joined by “and”; a condition that tells them apart may be missing. Equal values may be shown once. Read-outs that look alike come from different tables or passages of the source. Residues, ends and D or L forms follow the SMILES beside them. No end group written: not given here.
Columns and labels:
PDAC cell lines = assay: MHC-II surface expression on PDAC cell lines by flow cytometry; format: cell-based, human; conditions: 48 h; for MHC-II expression, agent alone / MHC-II expression, treatment together with IFN-γ: 8988 T, FA6 and MiaPaca-2 cells; for MHC-II expression, treatment together with IFN-γ: IFN-γ 50 ng/mL
Procedure: All PDAC cell lines were stimulated with 50 ng/mL of the human recombinant IFN-γ (#570206; BioLegend) in T75 culture flasks for 48 h. As negative control, we co-incubated the cell lines in the medium alone. Where inhibitors were used, trametinib (#S2673; Selleckchem) or trichostatin A (TSA) (#T8552-1 MG; Sigma-Aldrich) at the indicated concentrations were added into the cultures with or without IFN-γ. After incubation, the cells were removed from the flasks by treatment with trypsin, cell suspensions were prepared and cells were stained with purified mouse IgG antibodies to CLIP (clone CerCLIP.1; #ab22606; Abcam, Cambridge, UK), and HLA-DR, DP, DQ (clone Tü39; #555556; BD) or isotype control (mouse IgG2a; #554645; BD) followed by Alexa Fluor 488-conjugated anti-mouse IgG, and APC-conjugated anti-PD-L1 (clone 29E.2A3; #329708; BioLegend) and processed for flow cytometry analysis.
(§1) For cell surface labeling, cell suspensions were incubated with antibodies for 30 min at room temperature. For intracellular staining, cells were fixed and permeabilized using a Leucoperm kit (Bio-Rad; #BUF09C) in accordance with the manufacturer’s guidelines. Prior to intracellular staining with anti-IFN-γ, cells were incubated overnight in the presence of 5 microgram per mL brefeldin A (Sigma-Aldrich; #B6542-5 MG). Cell viability was analyzed by Ethidium homodimer 1 and calcein-AM double-staining using LIVE/DEAD® Viability/Cytotoxicity Kit, for mammalian cells according to the manufacturer’s instructions (#L3224; Invitrogen). Flow cytometry was done using a FACSCalibur (Becton Dickinson, Heidelberg, Germany) or BD LSRII (Becton Dickinson) flow cytometer. The data were processed with the CellQuest software (Becton Dickinson, Heidelberg, Germany) and analyzed with the WinMDi 2.9 (Purdue University, USA).

HLA-DP4 = biological target: T1, HLA-DP4 (Homo sapiens, UniProt P04440+P20036); assay: Cell-based competitive MHC-II binding assay with T2-DP4 cells
T1 construct: expressed in transfected cells; host or cells: T2 lymphoblastoid cell line transfected with HLA-DP4 (T2-DP4), gift of Prof; Naoto Hirano, University of Toronto
T1 sequence (P04440 30-258): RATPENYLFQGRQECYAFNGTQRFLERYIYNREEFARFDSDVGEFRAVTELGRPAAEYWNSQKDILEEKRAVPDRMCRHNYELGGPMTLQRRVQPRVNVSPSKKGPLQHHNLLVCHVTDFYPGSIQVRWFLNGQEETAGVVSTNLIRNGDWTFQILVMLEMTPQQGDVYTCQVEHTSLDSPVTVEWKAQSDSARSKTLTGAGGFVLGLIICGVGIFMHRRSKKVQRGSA
T1 sequence (P20036 29-260): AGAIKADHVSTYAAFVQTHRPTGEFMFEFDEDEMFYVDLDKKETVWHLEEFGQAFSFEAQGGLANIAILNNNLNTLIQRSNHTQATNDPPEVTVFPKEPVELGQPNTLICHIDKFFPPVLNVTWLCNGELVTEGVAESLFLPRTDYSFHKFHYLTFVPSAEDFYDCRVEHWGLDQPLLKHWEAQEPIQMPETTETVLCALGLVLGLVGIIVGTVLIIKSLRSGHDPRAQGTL

CD4+ T-cells = assay: Immunogenicity T-cell assay (intracellular IFN-γ in peptide-stimulated CD4+ T-cells); format: cell-based, human; conditions: for Immunogenicity, % of responses: percentage of the 9 donors responding; for Immunogenicity, No of responses: responding donors of 9 HLA-DP4-positive donors, 3 weekly stimulations with mDC pulsed at 10 μg/mL, challenge with peptide-pulsed T2-DP4, intracellular IFN-γ by FACS
Procedure: Immunogenicity of candidate HLA-DP4 neo-epitopes was performed using HLA-matched healthy donors’ autologous PBMCs. Briefly, mature DCs were pulsed with individual neo-epitopes at 10 μg/mL and co-cultured with autologous magnetic-sorted CD4+ T-cells (CD4 Microbeads Human, MACS Miltenyi; #130-045-101) in RPMI with 5% AB human serum (#H4522-100ML; Sigma-Aldrich), 10 units/mL penicillin–streptomycin, 2 mmol/L L-glutamine, 1% nonessential amino acid, IL-6 (#570802; BioLegend) (1000 U/mL) and IL-12 (#573002; BioLegend) (5 ng/mL). IL-2 (#589106; BioLegend) (30 U/mL) and IL-7 (#581902; BioLegend) (5 ng/mL) was added every 2 days. CD4+ T-cells underwent another two rounds of stimulation with peptide-pulsed mature DCs on day 7 and 14. Seven days after the third stimulation, CD4+ T-cells were challenged by overnight incubation with peptide-loaded T2-DP4 cells. As a control, CD4+ T-cells were incubated with T2-DP4 without peptide. Reactivity of the T cells was determined by intracellular IFN-γ (#502515; BioLegend) staining measured by flow cytometry. When Capan-1-derived neo-epitopes were tested, the peptide-stimulated CD4+ T-cells were challenged by overnight incubation with Capan-1 (MHC-II-negative), IFN-γ-treated Capan-1 cells (MHC-II-positive). Supernatants were collected and assessed for LDH (cytotoxicity), IFN-γ, granzyme B and granulysin. Where indicated, purified endotoxin-free anti-MHC class II (clone TÜ39; #555556; BD Bioscience, Chicago, IL, USA) antibodies were added to the co-cultures at 10 μg/mL.
as §1

MiaPaca-2 cells = assay: CD4+ T-cell recognition of MiaPaca-2 cells (granzyme B ELISA); format: cell-based, human; conditions: MHC-II induced by IFN-γ in conjunction with trametinib; overnight, T-cell:tumor 5:1, granzyme B ELISA, 4 donors
Procedure: Figure 8. Trametinib and TSA enhance responsiveness to IFN-γ in PDAC cells. (A) 8988 T, FA6 and MiaPaca-2 cells were treated with IFN-γ or left untreated, in the presence or absence of the MEK inhibitor, trametinib and/or histone deacetylase inhibitor TSA at the indicated concentrations for 48 hours. The cells were then collected, stained with anti-MHC-II antibodies and analyzed by flow cytometry. All flow cytometry data were gated on viable, singlets and MFI values for MHC-II were normalized to the untreated cells (none). Data are from three independent experiments. (B) Allogenic activated CD4+ T-cells from 4 healthy donors were incubated overnight with MiaPaca-2 cells (T-cell:tumor ratio 5:1). Where indicated, the cultures were treated with blocking antibodies or isotype control (IgG). […] All data were analyzed by one-way ANOVA; * P < 0.05; ** p < 0.01; *** p < 0.001; **** p < 0.0001. […]
The cytokine IFN-γ and the cytolytic molecules granulysin and granzyme B were detected in supernatants of T-cell/tumor cell co-cultures using commercial ELISA kits (Human IFN gamma ELISA Ready-SET-Go!®, #88-7316-76, Affymetrix eBioscience; Human Granulysin DuoSet ELISA, #DY3138; and Human Granzyme B DuoSet ELISA, #DY2906-05, R&D Systems) in 96-well microtiter plates (Nunc Maxisorp, Rochester, NY, USA) following the manufacturer’s instructions.

[1] = T2-DP4 cells, overnight 37°C, competitor from 80 µM in 8 serial dilution steps, 500 nM FITC-labeled Oxy271-287, flow cytometry, n = 3 per peptide, read-out: IC50 (µM) Binding Assay

## CC(/C=C/C(=O)NO)=C\[C@@H](C)C(=O)c1ccc(N(C)C)cc1 [TSA, trichostatin A]
PDAC cell lines
  MHC-II expression, agent alone: did not induce expression of MHC-II
  MHC-II expression, treatment together with IFN-γ: enhanced MHC-II expression in FA6 cells, but not in 8988 T and MiaPaca-2 cells

## GKGLVYAQYLPKEQY [Peptide 105]
HLA-DP4; [1]
  IC50: 47.9 µM

## GLQTLYSAALYHLTT [Peptide 93]
HLA-DP4; [1]
  IC50: 21.6 µM

## FNNFTVSFWLRVPKVSASHLE [TT 947-967, reference compound]
HLA-DP4
  IC50: 3.05 µM

## SFQHLHRLTYLKLWY [Peptide 78]
HLA-DP4; [1]
  IC50: 25.8 µM

## RNTIGQVAAGAFANL [Peptide 86]
HLA-DP4; [1]
  IC50: 37 µM

## KFESEKYQDILMWNY [Peptide 71]
HLA-DP4; [1]
  IC50: 28.9 µM

## IVKGRFGEVWRGRWR [Peptide 103]
CD4+ T-cells
  Immunogenicity, % of responses: 22%
  Immunogenicity, No of responses: 2 of 9

## FQHLHRLTYLKLWYN [Peptide 80]
HLA-DP4; [1]
  IC50: 27.8 µM

## TDLHMLGAPVWAMLF [Peptide 96]
HLA-DP4; [1]
  IC50: 10.9 µM

## ALLKFWEDEGFVREE [Peptide 101]
CD4+ T-cells
  Immunogenicity, % of responses: 44%
  Immunogenicity, No of responses: 4 of 9

## HLVAFGISCFLGSGL [Peptide 77]
CD4+ T-cells; 9 HLA-DP4-positive donors
  Immunogenicity (in words): most immunogenic
CD4+ T-cells
  Immunogenicity, % of responses: 88%
  Immunogenicity, No of responses: 8 of 9

## RNTGLQTLYSAALYH [Peptide 97]
HLA-DP4; [1]
  IC50: 22.6 µM

## PRGKGLVYAQYLPKE [Peptide 104]
HLA-DP4; [1]
  IC50: 38.2 µM

## MIYSLRNTEFKSALR [Peptide 84]
HLA-DP4; [1]
  IC50: 24.5 µM

## LKFWEDEGFVREEED [Peptide 100]
CD4+ T-cells
  Immunogenicity, % of responses: 22%
  Immunogenicity, No of responses: 2 of 9

## QGKYKAFSTCAFHLS [Peptide 70]
HLA-DP4; [1]
  IC50: 31.5 µM

## LLKFWEDEGFVREEE [Peptide 98]
CD4+ T-cells
  Immunogenicity, % of responses: 11%
  Immunogenicity, No of responses: one out of nine and 1 of 9

## CSCC[C@H](NC(=O)[C@H](CCC(N)=O)NC(=O)[C@@H]1CCCN1C(=O)[C@@H](NC(=O)[C@H](CC(=O)O)NC(=O)[C@@H](N)CS)C(C)C)C(=O)N[C@@H](CC(C)C)C(=O)N[C@@H](CCCCN)C(=O)N[C@@H](CC(C)C)C(=O)N[C@@H](C)C(=O)N[C@@H](CS)C(=O)N[C@@H](Cc1ccc(O)cc1)C(=O)N[C@@H](Cc1ccc(O)cc1)C(=O)N[C@@H](CCC(=O)O)C(=O)N[C@@H](Cc1ccccc1)C(=O)O [Peptide 94] (H-CDVPQMLKLACYYEF-OH; N-terminus and C-terminus assumed)
CD4+ T-cells
  Immunogenicity, % of responses: 0%
  Immunogenicity, No of responses: 0 of 9

## CC(=O)Nc1cccc(-n2c(=O)n(C3CC3)c(=O)c3c(Nc4ccc(I)cc4F)n(C)c(=O)c(C)c32)c1 [trametinib]
PDAC cell lines
  MHC-II expression, agent alone: induced a slight increase in the expression of MHC-II
  MHC-II expression, treatment together with IFN-γ: increased MHC-II expression compared with IFN-γ alone
MiaPaca-2 cells
  Susceptibility of MiaPaca-2 cells to CD4+ T-cell recognition: rendered these cells susceptible to CD4+ T-cells recognition

## YKAFSTCAFHLSVVS [Peptide 69]
HLA-DP4; Peptides with IC50 < 200 µM were considered binders
  Binding to HLA-DP4 in cell-based binding assay (in words): not to bind

## TFRSPQKFGALIFLV [Peptide 91]
HLA-DP4; [1]
  IC50: 24.8 µM

## TAFTFQSSKEKLDVG [Peptide 109]
CD4+ T-cells
  Immunogenicity, % of responses: 11%
  Immunogenicity, No of responses: one out of nine and 1 of 9

## FESEKYQDILMWNYR [Peptide 73]
HLA-DP4; [1]
  IC50: 15.9 µM

## HTCVKFYIEGFEPGK [Peptide 74]
CD4+ T-cells
  Immunogenicity, % of responses: 11%
  Immunogenicity, No of responses: one out of nine and 1 of 9

## IYSLRNTEFKSALRR [Peptide 83]
HLA-DP4; [1]
  IC50: 27.7 µM

## PMIYSLRNTEFKSAL [Peptide 92]
HLA-DP4; [1]
  IC50: 6.36 µM

## SIDRTVMYYGLLFIQ [Peptide 88]
HLA-DP4; [1]
  IC50: 71 µM

## QPEGPYRVAGYSYVA [Peptide 87]
HLA-DP4; [1]
  IC50: 31.9 µM

## IGQVAAGAFANLRAL [Peptide 99]
HLA-DP4; [1]
  IC50: 27.9 µM

## TGLQTLYSAALYHLT [Peptide 102]
HLA-DP4; [1]
  IC50: 14.3 µM

## QHLHRLTYLKLWYNH [Peptide 82]
HLA-DP4; [1]
  IC50: 18.6 µM

B1: IFN-γ: human recombinant IFN-γ (#570206; BioLegend) (protein, UniProt P01579 24-161, looked up)
Interferon gamma: QDPYVKEAENLKKYFNAGHSDVADNGTLFLGILKNWKEESDRKIMQSQIVSFYFKLFKNFKDDQSIQKSVETIKEDMNVKFFNSNKKKRDDFEKLTNYSVTDLNVQRKAIHELIQVMAELSPAAKTGKRKRSQMLFRG
PDAC cell lines; 14 PDAC and circulating tumor cell lines, 50 ng/mL
  MHC class II surface expression: upregulated in these cell lines and de novo expression was observed in six additional cell lines
PDAC cell lines
  MHC-II expression, agent alone: induced low expression of MHC-II

Source: publication PMC9154752, “MHC class II molecules on pancreatic cancer cells indicate a potential for neo-antigen-based immunotherapy” (Oncoimmunology, 2022)
